Test results as given in US6656955B2, “Pharmaceutical composition having enhanced antitumor activity and/or reduced side effects, containing an antitumor agent and an hydroximic acid derivative” (priority 1997, dated 2003).

Experiments:
S-180 sarcoma = assay: Tumor growth inhibition, S-180 solid tumor in mice; format: in vivo; details: single (FIG. 1) or repeated injections (FIG. 2)
Experimental: (§1) In vivo experiments with mice. Single or repeated treatments started on day 1 following transplantation of P-388 or S-180 tumor The therapeutic effectiveness was evaluated on the basis of survival time and tumor volume. The experiments were terminated after 45 days. Long-term survival of mice were not followed beyond 45 days, but the end point was on day 46 following tumor transplantation. The comparative antitumor effect of various treatment groups on the median survival time in days for treated versus control groups was expressed as T/C.
In the case of S-180 solid tumor the tumor growth inhibitory effect of compounds was controlled 3 times for a week using digital caliper. Tumor volume was calculated using the following formula: […]
where “a” and “b” are the shortest and the longest diameter, respectively of a given tumor (Tomayko M. M. and Reynolds C. P.: Determination of subcutaneous tumor size in athymic/nude/mice. Cancer Chemother. Pharmacol, 24, p. 148,1989). Mean values (X) and standard deviations (S.D.) were calculated. The statistically significant difference (p) was determined by Student' t test, where appropriate.

P-388 leukemia cells = assay: Survival of mice inoculated with P-388 leukemia; format: in vivo, BDF1 mice; details: for Long term Percent survival / Long term Survivors/Total: day 45
Experimental: as §1
Treatments started 1 day after the i.p. tumor transplantation.

Wistar rats [1] = assay: One month survival after two week treatment of rats; format: in vivo; details: cisplatin 50 mg/kg daily, compound L 40 mg/kg daily
Experimental: (§2) In vivo experiments with rats. […] The animals were healthy (without any tumor inoculation) at the beginning of the experiment, and the dose of the antitumor compound was provocatively/unusually high which by itself would cause tissue damage with high probability. […] During treatment, cardiac function of animals was followed by ECG, and after two weeks of treatment enzymatic activity in the blood of animals was determined.
It was investigated how many percent of animals were still alive following a two week treatment detailed above.

Wistar rats [2] = assay: Tissue damage: intracellular enzyme release into serum of cisplatin-treated rats; format: in vivo, rat; details: after two weeks, cisplatin 50 mg/kg daily, compound L 40 mg/kg daily
Experimental: as §2
Tissue damage was evaluated by measuring intracellular release of enzymes. Enzymatic activity was determined by the method of H. U. Bergmeyer. (Methods in Enzymatic Analysis, 2nd edition, Academic Press (1974)/. The following enzymes were measured:
GOT=glutamate-oxalacetate-transaminase,
GPT=glutamate-piruvate-transaminase,
LDH=lactate dehydrogenase,
LipDH=lipoamide-dehydrogenase,
Enzymatic activity is given in mUnit/m1 serum.

[3] = test system: Sp-2 (mouse myeloma, suspension) cells; assay: Surviving tumor cells in cell culture, trypan blue counting; format: cell-based; details: Sp-2 cells, compound L 40 microgram/ml
Experimental: Experiments with cell culture. Sp-2 (mouse myeloma, suspension) cells were plated on DMEM (Dubelso modified Eagle medium) in the presence of 10% FCS (fetal calf serum). Cells were plated on 96 hole plate with a starting cell number of 10^4/250 μl.
48 hours after treatment, i.e., addition of the above listed compounds, cells in the holes were counted in a method of staining them with 10 microliter of tripaneblue following suspension. Counting was done in B{overscore (u)}rker chamber.
In this case, one portion of cells were plated without the presence of drug, one portion of cells were plated in the presence of 13 microgram/ml fluoroacil, another portion in the presence of 13 microgram/ml fluoroacil+40 microgram/ml compound “L”. Survival rate was examined […] after treatment.

Wistar rats [4] = assay: Cardiac function by ECG in cisplatin-treated rats; format: in vivo, rat; details: cisplatin 50 mg/kg daily, compound L 40 mg/kg daily
Experimental: as §2
Cardiac function was monitored by AT-6 ECG on all four limbs. QRS, RR, PR and TQ distances and J point depressions were determined.

BDF1 male mice = assay: Acute toxicity (survival) in normal mice; format: in vivo; details: for Survival % / Survivors/Total: 25 days observation
Experimental: In vivo experiments with mice. […] [c.f. Oncology Report (REP/O.O.I./1988/01)]. First generation hybrid BDF1 (C57B1 female×DBA/2 male) adult male mice, weighing 22-24 g, specified pathogen free (SPF) were used for these experiments. The animals were kept in macrolon cages at 22-24° C. (40-50% humidity), with a lighting regimen of 12/12 h light/dark.
The observation period was terminated after 25 days. Of compound “L” doses, the dose of 750 mg/kg body weight, i.p. was lethal (Table 4).

[5] = group 10: CisPt 10 mg/kg i.p., 1 qd
[6] = group 13: CisPt 3 mg/kg i.p., 5 qd
[7] = 48 hours, cisplatin 0.35 microgram/ml
[8] = 40 hours, fluoroacil 13 microgram/ml

## N.N.[Cl][Pt][Cl] [Cisplatin, cis-diammine-dichloroplatinum]
S-180 sarcoma
  Tumor growth inhibitory effect (tumor growth curves, mean tumor volumes): significant inhibitory effect
P-388 leukemia cells; [5]
  T/C %: 147.0%
  Long term Percent survival: 29%
  Long term Survivors/Total: 2/7
P-388 leukemia cells; group 10: CisPt 10 mg/kg i.p., 1 qd, non-long-term survivors (5 mice)
  Mean Survival (days): 16.6 ± 4.6 day⁻¹
P-388 leukemia cells; [6]
  T/C %: 257.0%
  Long term Percent survival: 43%
  Long term Survivors/Total: 3/7
P-388 leukemia cells; group 13: CisPt 3 mg/kg i.p., 5 qd, 4 mice
  Mean Survival (days): 29.0 ± 6.1 day⁻¹
Wistar rats [1]
  One month survival (%): 25%
Wistar rats [2]
  Enzymatic activity CK (creatine-kinase): 9776 mU/ml
  Enzymatic activity CS (citrate-synthase): 22 mU/ml
  Enzymatic activity GOT (glutamate-oxalacetate-transaminase): 273 mU/ml
  Enzymatic activity GPT (glutamate-piruvate-transaminase): 87 mU/ml
  Enzymatic activity LDH (lactate dehydrogenase): 5136 mU/ml
  Enzymatic activity LipDH (lipoamide-dehydrogenase): 69 mU/ml
[3]; [7]
  Surviving cell (%): 12 ± 4%
Wistar rats [4]
  J point depression: 2.1 ± 0.3 mm
  QRS: 102 ms
  QRS intensity: fluctuating

## Cl.Cl.NC(=NOCC(O)CN1CCCCC1)c1cccnc1 (stereo not drawn) [compound “L”, O-(3-piperidino-2-hydroxyl-1-propyl)niconitic acid amidoxime dihydrochloride]
BDF1 male mice; compound L 750 mg/kg body weight, i.p.
  Toxicity evaluated on the basis of survival: lethal
BDF1 male mice; group 1: 200 mg/kg i.p., 1 qd
  Survival %: 100%
  Survivors/Total: 7/7
BDF1 male mice; group 2: 750 mg/kg i.p., 1 qd
  Survival %: 0%
  Survivors/Total: 0/7
BDF1 male mice; group 3: 2000 mg/kg p.o., 1 qd
  Survival %: 100%
  Survivors/Total: 7/7
BDF1 male mice; group 4: 100 mg/kg i.p., 5 qd
  Survival %: 100%
  Survivors/Total: 7/7
BDF1 male mice; other single compound L treatments (Table 4)
  Toxicity evaluated on the basis of survival: no effect on the survival
[3]; [8]
  Surviving cell (%): 51 ± 8%
[3]; [7]
  Surviving cell (%): 51 ± 8%

## O=c1[nH]cc(F)c(=O)[nH]1 [Fluoroacil, 5-fluoro-2,4(1H,3H)pyrimidinedione]
[3]; [8]
  Surviving cell (%): 13 ± 3%
